In experiment [1] the test system is THP-1 cells. Briefly: Cytokine induction with dominant negative MyD88 or TRIF constructs in THP-1 macrophages. The format is cell-based, human. Particulars: for induction of TRIF-dependent cytokines when TRIF is knocked down: dominant negative TRIF construct.
Description: THP-1 cells are seeded in 12-well plates (5×10^5 cells/well) and incubated in 0.5 mL RPMI 1640 (ATCC) with 100 U/mL penicillin/100 ug/mL streptomycin (Sigma) with 20 ng/mL phorbol mystyric acid (PMA) (InvivoGen) for differentiation into macrophages. After differentiation of the THP-1, the media is changed to THP-1 media with 5 ng/mL PMA and the cells are transiently transfected with 0.5 μg/well of the pDeNy-hMyD88/LacZ, pDeNy-TRIF/LacZ, or pUNO-mcs (control)/LacZ plasmids and Fugene 6 transfection reagent for 48 h. Media is exchanged for fresh media and the cells are then stimulated with the indicated concentrations of TLR4 agonists for 14 hours. Harvested supernatants are assayed for cytokine levels by multiplex sandwich ELISA (R&D Systems) with the luminex platform. Control wells are assayed for transfection efficiency using the Invivogen LacZ Quantitation Kit.
For experiment [2], the system named is human PBMC-derived macrophages. Briefly: Cytokine/chemokine induction in the presence of the endocytosis inhibitor Dynasore. It is filed as cell-based. The note with it: with Dynasore; for MyD88-dependent MIP-1α induction under inhibition of endocytosis: relative to non-treated cells.
The target of experiment [3] is T1, human TLR4, MD-2, CD14 (Homo sapiens, UniProt O00206+Q9Y6Y9).
T1 construct: host or cells: HEK293-hTLR4/hMD2/hCD14
T1 sequence (O00206 24-839): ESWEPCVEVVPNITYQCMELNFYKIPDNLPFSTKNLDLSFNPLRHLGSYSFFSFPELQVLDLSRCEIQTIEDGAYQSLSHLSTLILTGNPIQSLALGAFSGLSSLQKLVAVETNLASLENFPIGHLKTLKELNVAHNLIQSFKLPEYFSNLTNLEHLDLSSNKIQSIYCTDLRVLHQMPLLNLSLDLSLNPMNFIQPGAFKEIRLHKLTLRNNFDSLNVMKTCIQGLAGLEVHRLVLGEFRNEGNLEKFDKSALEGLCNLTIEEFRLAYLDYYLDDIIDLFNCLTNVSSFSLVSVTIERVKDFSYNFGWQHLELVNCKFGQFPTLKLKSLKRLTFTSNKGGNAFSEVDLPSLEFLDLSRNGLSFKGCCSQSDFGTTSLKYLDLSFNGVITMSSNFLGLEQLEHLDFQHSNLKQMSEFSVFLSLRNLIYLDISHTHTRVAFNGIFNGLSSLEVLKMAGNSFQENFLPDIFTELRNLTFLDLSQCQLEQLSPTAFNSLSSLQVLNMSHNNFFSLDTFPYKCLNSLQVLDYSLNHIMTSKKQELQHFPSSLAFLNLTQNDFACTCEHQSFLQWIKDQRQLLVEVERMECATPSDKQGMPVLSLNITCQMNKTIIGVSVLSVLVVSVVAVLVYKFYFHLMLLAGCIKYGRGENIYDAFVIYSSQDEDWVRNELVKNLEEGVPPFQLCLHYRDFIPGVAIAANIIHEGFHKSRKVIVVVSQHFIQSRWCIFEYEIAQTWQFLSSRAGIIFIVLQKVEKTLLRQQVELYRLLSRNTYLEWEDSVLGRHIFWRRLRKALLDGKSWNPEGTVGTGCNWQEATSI
T1 sequence (Q9Y6Y9 19-160): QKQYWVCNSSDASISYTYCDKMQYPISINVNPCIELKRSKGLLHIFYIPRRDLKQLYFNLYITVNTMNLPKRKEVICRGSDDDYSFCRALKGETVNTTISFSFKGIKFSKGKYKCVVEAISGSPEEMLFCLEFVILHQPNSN
Briefly: NF-κB reporter activity in HEK293 cells transfected with human TLR4/MD-2/CD14. It is filed as cell-based. The note with it: HEK293 huTLR4/huMD-2/huCD14, NFκB reporter plasmid.
Description: HEK293-hTLR4/hMD2/hCD14 cells are seeded in 12-well plates (4×10^5 cells/well) and are cultured until 40-60% confluent (2-3 days). The cells are transfected for 24 hours with 100 ng of NF-κB reporter construct expressing secreted human embryonic alkaline phosphatase under the control of an engineered ELAM promoter with five NF-κB sites (pNiFty2-SEA-InvivoGen; San Diego, Calif.) and a transfection control plasmid constitutively expressing a thymidine kinase promoter driven luciferase (Promega). […] After transfection, cells are stimulated for 14 h with TLR4 agonists, and the cleared supernatant is assayed for SEAP activity (SEAP Reporter Assay Kit-InvivoGen) to quantify NF-κB activation and luciferase activity (Promega) to normalize for transfection efficiency following supplied protocols.

For experiment [4], the system named is human primary monocytes. Briefly: Western blot of human primary monocytes (IRAK-1, IRF-3). The format is cell-based. The note with it: Western blot time course. As to the method:
(§1) For Western blot and phospho-Western blot protein analysis, cells are lysed with Cell Lysis Buffer (Cell Signaling Technology, Danvers, Mass.) with Protease Inhibitor Cocktail (Sigma, St. Louis Mo.). Western Blot on PVDF membranes (Millipore) is performed using standard methods. Bands are detected with ECL Advance Western Blot kit (GE Healthcare, Piscataway, N.J.). Secondary Anti-Rabbit HRP antibody is obtainable from KPL, (Gaithersburg, Md.). Anti-βactin, anti-IRF-3, anti-phospho-IRF-3 (Ser396) and anti-IRAK1 antibodies are obtained from Cell Signaling Technology (Danvers, Mass.).
Degradation of the Serine/Threonine Kinase, IRAK-1, occurs downstream of MyD88-dependent TLR4 signaling (Hatao et al, 260-64; Neumann et al. 1089-94), while TRIF-dependent TLR4 signaling results in IRF-3 activation (Yamamoto et al. 6668-72; Yamamoto et al. 640-43). Here, human primary monocytes are stimulated with either CRX-547 or CRX-527 for the indicated times, and cellular lysates are analyzed by Western Blot for the levels of the MyD88 pathway-activated kinase, IRAK-1, and the TRIF pathway-activated transcription factor, IRF-3 (phospho-IRF-3 and total IRF-3). The levels of β-actin is used as the loading control.
(Immunoblotting shows a protein as a band on a membrane.)

Experiment [5] relates to MM6 cells. As to the kind of experiment: Western blot of MM6 cells (IκBα, IRAK4, p38, IRF3). It is filed as cell-based, human. The note with it: for IRAK-4 / total IκBα / TRIF-mediated signaling proteins (phospho-p38, total p38, IRF3, phospho-IRF3): 10 ng/ml; for TRIF-mediated signaling proteins (phospho-p38, total p38, IRF3, phospho-IRF3): difference between the two AGPs. As to the method: as §1
The role of MAPK signaling molecules in MyD88 versus TRIF signaling after TLR4 ligation is complicated because p38 is implicated in both pathways, however a role for p38 phosphorylation as an indicator of the TRIF pathway is indicated in the literature. […] To determine whether the phosphorylation state of p38 is different after stimulation with CRX-527 versus CRX-547, western blot analysis is performed on lysates from MM6 cells.
MAPK pathways and downstream transcription factors are differentially regulated by TLR agonists. Degradation of IRAK4 and IκBα are indicative of MyD88 after TLR4 signaling (Hatao et al. 260-64; Neumann et al. 1089-94), while TRIF-mediated TLR4 signaling results in IRF3 activation (Yamamoto et al. 6668-72; Yamamoto et al. 640-43). MM6 cells are stimulated with either CRX-547 or CRX-527 (10 ng/ml) for the indicated time. Cellular lysates are collected and Western Blot analysis of the MyD88 pathway proteins, Phospho-IκBα, total IκBα, IRAK4, and TRIF pathway proteins, phospho-p38, total IRF3 and phospho IRF3 is performed using βactin as the loading control.

A short description of experiment [6]: Induction of serum cytokines/chemokines in mice. It is filed as in vivo, mouse. Particulars: C57BL/6 mice, 2 or 6 hours post injection. How it is done: Female BALB/c or C57B1/6 mice are obtained from Charles River Laboratories, USA, and are 7 to 9 weeks of age when the experiments are initiated. Mice are injected intraperitoneally with 200 uL of agonist in vehicle (0.2% glycerol) or vehicle alone. Serum samples are drawn at 2 or 6 hours post-injection and are tested for induction of cytokines/chemokines by multiplex sandwich ELISA (Invitrogen) on the Luminex platform. All animals are used in accordance with guidelines established by the Public Health Service and the Institutional Animal Care and Use Committee at GlaxoSmithKline Biologicals, Hamilton, Mont.
To ensure that this response is not specific to BALB/c mice, a similar test of serum cytokine induction in C57BL/6 mice is carried out. (FIG. 16). The kinetics (induction at 2 or 6 hours post injection) and magnitude of cytokine induction are similar for CRX-527 and CRX-547 for both MyD88-dependent (TNFα, IL-10) and TRIP-dependent (RANTES, IP-10, MIG) cytokines/chemokines, although the relative induction by CRX-547 is slightly less for select cytokines than that seen in BALB/c (not shown). […]

Experiment [7] has as its target T2, human TLR4 and murine MD-2 (UniProt O00206+Q9JHF9).
T2 construct: expressed in transfected cells; host or cells: HEK293
Briefly: NFκB promoter activity in HEK293 cells with chimeric human TLR4 and murine MD-2. The note with it: HEK293 huTLR4/muMD-2. The format is cell-based, human/mouse.

For experiment [8], the system named is human PBMC-derived monocytes. As to the kind of experiment: Cytokine/chemokine gene expression (qPCR time course) in human PBMC-derived monocytes. It is filed as cell-based. The note with it: for time of highest IFNβ gene induction: qPCR time course. The text has this: Initial experiments include time course analysis of MyD88- and TRIF-dependent cytokine gene induction using qPCR.
In general terms: Quantitative PCR measures a nucleic acid by following its amplification.

In experiment [9] the test system is PBMCs from BALB/c mice. As to the kind of experiment: Cytokine induction in PBMCs from BALB/c mice. The format is cell-based, mouse. Particulars: CRX-527 versus CRX-547; experiment performed once. How it is done: To determine whether PBMCs from mouse blood have similar profiles of MyD88 cytokines after CRX-527 or CRX-547 treatment, commercially available blood from BALB/c mice is tested with CRX-527 or CRX-547. (FIG. 24), Levels appear to be similar between the two groups tested.

[10] abbreviates: dominant negative MyD88 construct.

Entries after “also recorded” stand apart in the source; their conditions may differ.

Experimental findings from patent US8629116B2, “Method for inducing a TRIF-bias” (priority 2008, dated 2014) are described below.

T2 sequence (O00206 24-839): as the sequence (O00206 24-839) above
T2 sequence (Q9JHF9 19-160): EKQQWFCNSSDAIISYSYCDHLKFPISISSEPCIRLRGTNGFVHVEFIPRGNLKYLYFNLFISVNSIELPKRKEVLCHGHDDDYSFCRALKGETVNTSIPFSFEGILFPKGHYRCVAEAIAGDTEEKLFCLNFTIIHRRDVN

With `CCCCCCCCCCCC(CC(=O)NC(COC1OC(CO)C(OP(=O)(O)O)C(OC(=O)CC(CCCCCCCCCCC)OC(=O)CCCCCCCCC)C1NC(=O)CC(CCCCCCCCCCC)OC(=O)CCCCCCCCC)C(=O)O)OC(=O)CCCCCCCCC.CCN(CC)CC` (stereo not drawn) [CRX-527], in experiment [1] (setting [10]), the “induction of MyD88-dependent cytokine (TNFα) when MyD88 signaling is inhibited” value is “significantly reduced” and the “induction of TRIF-dependent cytokine RANTES when MyD88 signaling is inhibited” value is reported as “only slightly reduced”. Moreover, the “induction of TRIF-dependent cytokines when TRIF is knocked down” value in [1] was “reduced to a similar extent”. For the same compound, in experiment [2], the “TRIF-dependent RANTES induction under inhibition of endocytosis” value is given as “inhibits” and the “MyD88-dependent MIP-1α induction under inhibition of endocytosis” value was “increases slightly”. Also, the NF-κB promoter/reporter activation result in [3] is reported as “significantly higher activation”. Moreover, in experiment [4], the “IRAK-1 level (MyD88 pathway)” value is recorded as “rapid decrease; also recorded: greater degradation”. Also, in [5], the IRAK-4 result is given as “rapid decrease; also recorded: greater degradation”; the “total IκBα” value is “rapid decrease”; the “TRIF-mediated signaling proteins (phospho-p38, total p38, IRF3, phospho-IRF3)” value was “little or difference”. Besides, the “phosphorylation state of p38” value in experiment [5] (compared to CRX-547) is listed as “slight increase”. Also, the “kinetics and magnitude of serum cytokine induction (TNFα, IL-10, RANTES, IP-10, MIG)” value in experiment [6] was “similar”. In experiment [7], the “induction of promoter activity, CRX-527 versus CRX-547” value is given as “large relative difference”. Besides, in experiment [8], the “MyD88-dependent cytokine/chemokine gene expression” value is on record as “greater”, the “TRIF-dependent cytokine/chemokine gene expression” value is on record as “greater” and the “time of highest IFNβ gene induction” value amounted to 1 h. Moreover, the MyD88 cytokine levels entry in experiment [9] is “similar”.
For `CCCCCCCCCCCC(CC(=O)NC(COC1OC(CO)C(OP(=O)(O)O)C(OC(=O)CC(CCCCCCCCCCC)OC(=O)CCCCCCCCC)C1NC(=O)CC(CCCCCCCCCCC)OC(=O)CCCCCCCCC)C(=O)O)OC(=O)CCCCCCCCC.CCN(CC)CC` (stereo not drawn) [CRX-547], the “induction of MyD88-dependent cytokine (TNFα) when MyD88 signaling is inhibited” value in experiment [1] (setting [10]) is reported as “unaffected”. Also, the “induction of TRIF-dependent cytokines when TRIF is knocked down” value in [1] is “reduced to a similar extent”. Also, in [2], the “TRIF-dependent RANTES induction under inhibition of endocytosis” value is given as “inhibits” and the “MyD88-dependent MIP-1α induction under inhibition of endocytosis” value was “increases slightly”. Besides, the NF-κB promoter/reporter activation entry in experiment [3] is recorded as “less NFκB reporter activity”. Further, the “IRAK-1 level (MyD88 pathway)” value in experiment [4] was “delayed and reduced degradation”. Moreover, in experiment [5], the IRAK-4 result is “delayed and less degradation”; the “total IκBα” value is “delayed and less degradation”; the “TRIF-mediated signaling proteins (phospho-p38, total p38, IRF3, phospho-IRF3)” value is listed as “little or difference”. In addition, the “kinetics and magnitude of serum cytokine induction (TNFα, IL-10, RANTES, IP-10, MIG)” value in experiment [6] is recorded as “similar”. Besides, the “induction of promoter activity, CRX-527 versus CRX-547” value in experiment [7] is “large relative difference”. Moreover, the “time of highest IFNβ gene induction” value in experiment [8] was 1 h. Also, in [9], the MyD88 cytokine levels result is on record as “similar”.
